ChEMBL document CHEMBL1159152, “A novel bromopyrrole alkaloid from the sponge Agelas longissima with antiserotonergic activity” (Bioorg Med Chem Lett, 1995)

Legend:
[1] = target: Serotonin (5-HT) receptor; assay: Affinity against 5-hydroxytryptamine receptor was determined; assay type: protein assay, Rattus norvegicus
Rattus norvegicus = species on record: Rattus norvegicus; assay: In vitro antiserotonergic activity on rat stomach fundus strip; assay type: functional

Compound: O=C([O-])c1ccc[n+](CCOC(=O)c2cc(Br)c[nH]2)c1
- pA2 [1]: 6.2
- IC50 (Rattus norvegicus): 80 µM
